According to article PMC2736202 (2009):

What was measured:
Assay in all cases: electrospray mass spectrometry
[1] = system: UpsB-Q-2 (DNA, G4) TAGGGTTAAGGGTATAACGTTAAGGGTTAGGGTT; settings: NH4+ 150 mM (NH4OAc); 20% methanol; 10 μM DNA
[2] = system: UpsB-Q-1 (DNA, G4) CAGGGTTAAGGGTATAACTTTAGGGGTTAGGGTT; settings: NH4+ 150 mM (NH4OAc); 20% methanol; 10 μM DNA, equimolar 10 μM BOQ1 in Figure 6B
[3] = system: UpsB-Q-3 (DNA, G4) CAGGGTTAAGGGTATACATTTAGGGGTTAGGGTT; settings: NH4+ 150 mM (NH4OAc); 20% methanol; 10 μM DNA
[4] = system: UpsB-Q-4 (DNA, G4) CAGGGTTTAGGGTATAACTTTAGGGGTTAGGGTT; settings: NH4+ 150 mM (NH4OAc); 20% methanol; 10 μM DNA

- Kd [1]: 1400 ± 400 nM
- Kd [2]: 2600 ± 500 nM
- Kd [3]: 1700 ± 700 nM
- Kd [4]: 2700 ± 1100 nM
SMILES: c1cc2nc3c4ccc5cc6cc(ccc6nc53)CNCCNCCNCc3ccc5nc6c(ccc7cc8cc(ccc8nc76)CNCCNCCNCc1cc2c4)cc5c3
